Assay results taken from patent US11897856B1, “N-(Naphthalen-1-ylcarbamothioyl)furan-2-carboxamide as an eco-friendly insecticidal agent against Spodoptera littoralis (boisd.)” (KING FAISAL UNIVERSITY, priority 2023, dated 2024).
Converted amounts (≈) assume the structure as drawn. Where two headings read alike, the source gives them in different places.

Test system: Spodoptera littoralis
Experiment: Insecticidal bioassay screening (castor leaf dip, larval mortality)
Assay type: in vivo
Conditions: for Toxicity index %: 72 hrs, Diflubenzuron's LC50/compound's LC50 x 100; for LC90 (mg/L) at 95%: after 72 hrs of treatment; for LC50: Spodoptera littoralis, in Gossypium hirsutum, foliar
Protocol: Five concentrations (200, 100, 50, 25, 12.5 ppm) were designed for this synthetic compound and the reference Diflubenzuron compound as the dynamic ingredients based on ppm via diluting the commercial formulation.
In this experiment, castor leaves are immersed in each of the previously prepared concentrations of the components for 10 seconds and then left to dry for 60 minutes. Larvae of the second and fourth instars of each checked strain are prepared with treated leaves in gauze-covered glass containers for 72 hrs. An untreated control is made in which leaves are dipped in triton x-100 and distilled water only. Then the preserved leaves were removed & fresh, untreated leaves were provided for 72 hours. Three replicates (10 larvae each) were checked for each concentration. Daily inspection was carried out for all treatments and mortality percentages were recorded 3 days (72 hours) after treatment. The average mortality percentage was corrected employing Abbott's formula. The corrected mortality rate for each of the previously synthesized compounds is statistically calculated according to Finney (1970). Through this rate, the corresponding concentration test lines (LDP lines) are assessed.

[1] = 72 h, read-out: LC50 (mg/L) at 95%, 2nd instar larvae, after 72 hrs of treatment
[2] = 72 h, read-out: LC50 (mg/L) at 95%, 4th instar larvae, after 72 hrs of treatment
[3] = against Spodoptera littoralis under laboratory conditions, instar not stated

**Q.** `O=C(NC(=O)c1c(F)cccc1F)Nc1ccc(Cl)cc1` [Diflubenzuron, reference compound] was tested. Which Toxicity index % (2nd instar larvae) did it give?
**A.** 100%

**Q.** And the “LC90 (mg/L) at 95%” value (2nd instar larvae)?
**A.** 520.0 mg/L (≈ 1670 µM)

**Q.** What about the Toxicity index % (4th instar larvae) of the same compound?
**A.** 100%

**Q.** What about the “LC90 (mg/L) at 95%” value (4th instar larvae) of the same compound?
**A.** 1540.5 mg/L (≈ 4960 µM)

**Q.** What about the LC50 [1] of the same compound?
**A.** 45.2 mg/L (≈ 145 µM)

**Q.** What about the LC50 [2] of the same compound?
**A.** 144 mg/L (≈ 464 µM)

**Q.** What about the LC50 [3] of the same compound?
**A.** 45.2 mg/L (≈ 145 µM)

**Q.** What does the source list for `O=C(NC(=S)Nc1cccc2ccccc12)c1ccco1` [Compound 2, N-(Naphthalen-1-ylcarbamothioyl)furan-2-carboxamide]?
**A.** Toxicity index % (2nd instar larvae): 11.3%; LC90 (mg/L) at 95% (2nd instar larvae): 3612.2 mg/L (≈ 12200 µM); Toxicity index % (4th instar larvae): 12.9%; LC90 (mg/L) at 95% (4th instar larvae): 1727.9 mg/L (≈ 5830 µM); LC50 [3]: 400 mg/L (≈ 1350 µM); Insecticidal activity (in words) (against Spodoptera littoralis, compared with Diflubenzuron): active against Spodoptera littoralis; LC50 (mg/L) at 95% (in vivo): 1211.2 mg/L (≈ 4090 µM)

**Q.** With `O=C(NC(=S)Nc1cccc2ccccc12)c1ccco1` [N-(Naphthalen-1-ylcarbamothioyl)furan-2-carboxamide] as the compound, how does the LC50 [1] read?
**A.** ~400 mg/L (≈ 1350 µM)

**Q.** And the LC50 [2]?
**A.** ~1210 mg/L (≈ 4090 µM)
